Data from the supplement of paper PMC11061612.

Tests used:
Assay in all cases: Bliss excess, mean over the matrix (fraction); higher = more synergy
[1] = tested on: DB (B-Cell Non-Hodgkin's Lymphoma)
In short: (§1)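 After 24 hours at 37°C and 5% CO2 in 1536-well plates, cells in DMEM/F12 or RPMI plus 10% FBS received two-drug dose matrices for 72 hours. Viability came from CellTiter-Glo 2.0 luminescence and was scaled as inhibition, anchored at 0 by vehicle wells and at 1 by blank wells. Combination Emax is taken as the second-highest inhibition in the matrix, and Bliss excess as the observed combination effect less EA + EB − EA·EB, with EA and EB the single-agent effects.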

ES7 (Ewing's Sarcoma) = tested on: ES7 (Ewing's Sarcoma)
In short: as §1

[2] = tested on: G-292-Clone-A141B1 (Osteosarcoma)
In short: as §1

[3] = tested on: KARPAS-1106P (B-Cell Non-Hodgkin's Lymphoma)
In short: as §1

[4] = tested on: KARPAS-620 (Plasma Cell Myeloma)
In short: as §1

[5] = tested on: MDA-MB-157 (Breast Carcinoma)
In short: as §1

[6] = tested on: MDA-MB-231 (Breast Carcinoma)
In short: as §1

[7] = tested on: MFH-ino (Other Solid Carcinomas)
In short: as §1

[8] = tested on: NALM-6 (B-Lymphoblastic Leukemia)
In short: as §1

[9] = tested on: NCI-H1299 (Non-Small Cell Lung Carcinoma)
In short: as §1

[10] = tested on: NCI-H211 (Small Cell Lung Carcinoma)
In short: as §1

[11] = tested on: SW1990 (Pancreatic Carcinoma)
In short: as §1

[12] = tested on: TE-5 (Esophageal Squamous Cell Carcinoma)
In short: as §1

[13] = tested on: U-266 (Plasma Cell Myeloma)
In short: as §1

| SMILES | Bliss excess [1] | Bliss excess (ES7 (Ewing's Sarcoma)) | Bliss excess [2] | Bliss excess [3] | Bliss excess [4] | Bliss excess [5] | Bliss excess [6] | Bliss excess [7] | Bliss excess [8] | Bliss excess [9] | Bliss excess [10] | Bliss excess [11] | Bliss excess [12] | Bliss excess [13] |
| --- | --- | --- | --- | --- | --- | --- | --- | --- | --- | --- | --- | --- | --- | --- |
| C=CCn1c(=O)c2cnc(Nc3ccc(N4CCN(C)CC4)cc3)nc2n1-c1cccc(C(C)(C)O)n1 [AZD1775] + CCc1c2c(nc3ccc(O)cc13)-c1cc3c(c(=O)n1C2)COC(=O)[C@]3(O)CC [SN-38] (first compound max 1 µM, partner max 0.3 µM) | -0.0366 | -0.0228 | 0.023 | -0.0946 | -0.0145 | 0.0495 | 0.0031 | -0.0756 | -0.0563 | -0.0071 | -0.0576 | -0.0908 | -0.0583 | -0.0555 |
| C=CCn1c(=O)c2cnc(Nc3ccc(N4CCN(C)CC4)cc3)nc2n1-c1cccc(C(C)(C)O)n1 [AZD1775] + Nc1ccn([C@@H]2O[C@H](CO)[C@@H](O)C2(F)F)c(=O)n1 [Gemcitabine] (first compound max 1 µM, partner max 0.3 µM) |  | 0.0319 | -0.0405 | 0.0085 | 0.026 | 0.106 | 0.0686 | -0.0087 | -0.0093 | 0.0513 | 0.0129 | -0.0395 | -0.0678 | -0.0121 |
| CN(CCO)CC[C@H](CSc1ccccc1)Nc1ccc(S(=O)(=O)NC(=O)c2ccc(N3CCC([C@@H](O)c4ccccc4-c4ccc(Cl)cc4)CC3)cc2)cc1S(=O)(=O)C(F)(F)F [AZD4320] + CC(=O)O[C@H]1C(=O)[C@@]2(C)[C@H]([C@H](OC(=O)c3ccccc3)[C@]3(O)C[C@H](OC(=O)[C@H](O)[C@@H](NC(=O)c4ccccc4)c4ccccc4)C(C)=C1C3(C)C)[C@]1(OC(C)=O)CO[C@@H]1C[C@@H]2O [Paclitaxel] (first compound max 1 µM, 7x7, partner max 3 µM) | 0.043 | 0.0227 | 0.157 | 0.0929 | 0.0111 | 0.0168 | 0.111 | 0.0474 | 0.013 | 0.007 | 0.0259 | 0.329 | 0.176 | 0.0026 |
| CN(CCO)CC[C@H](CSc1ccccc1)Nc1ccc(S(=O)(=O)NC(=O)c2ccc(N3CCC([C@@H](O)c4ccccc4-c4ccc(Cl)cc4)CC3)cc2)cc1S(=O)(=O)C(F)(F)F [AZD4320] + CS(=O)(=O)CCNCc1ccc(-c2ccc3ncnc(Nc4ccc(OCc5cccc(F)c5)c(Cl)c4)c3c2)o1 [Lapatinib] (first compound max 1 µM, 7x7, partner max 10 µM) | 0.0048 | 0.0769 | 0.0467 | -0.0212 | 0.0697 | 0.019 | 0.0241 | -0.0732 | -0.0112 | -0.0664 | 0.0409 | -0.0093 | 0.0542 | -0.052 |
| CN(CCO)CC[C@H](CSc1ccccc1)Nc1ccc(S(=O)(=O)NC(=O)c2ccc(N3CCC([C@@H](O)c4ccccc4-c4ccc(Cl)cc4)CC3)cc2)cc1S(=O)(=O)C(F)(F)F [AZD4320] + Nc1ccn([C@@H]2O[C@H](CO)[C@@H](O)C2(F)F)c(=O)n1 [Gemcitabine] (first compound max 1 µM, 7x7, partner max 0.3 µM) | -0.029 | -0.0271 | -0.0015 | -0.0009 | -0.0168 | -0.0349 | -0.0245 | -0.0252 | -0.0024 | -0.0261 | 0.0135 | 0.0103 | 0.0559 | 0.0421 |
| Cc1c2c(nn1C)CSCc1cc(n(C)n1)CSc1cc(c3ccccc3c1)OCCCc1c(C(=O)O)n(C)c3c-2c(Cl)ccc13 [AZD5991] + CC(=O)O[C@H]1C(=O)[C@@]2(C)[C@H]([C@H](OC(=O)c3ccccc3)[C@]3(O)C[C@H](OC(=O)[C@H](O)[C@@H](NC(=O)c4ccccc4)c4ccccc4)C(C)=C1C3(C)C)[C@]1(OC(C)=O)CO[C@@H]1C[C@@H]2O [Paclitaxel] (first compound max 1 µM, 7x7, partner max 3 µM) | 0.0342 | -0.06 | 0.0565 | 0.132 | -0.0174 | 0.078 | 0.0049 | -0.0321 | -0.0432 | -0.0453 | 0.0016 | -0.0231 | -0.0112 | -0.0074 |
| Cc1c2c(nn1C)CSCc1cc(n(C)n1)CSc1cc(c3ccccc3c1)OCCCc1c(C(=O)O)n(C)c3c-2c(Cl)ccc13 [AZD5991] + CS(=O)(=O)CCNCc1ccc(-c2ccc3ncnc(Nc4ccc(OCc5cccc(F)c5)c(Cl)c4)c3c2)o1 [Lapatinib] (first compound max 1 µM, 7x7, partner max 10 µM) | 0.0597 | 0.0148 | -0.0185 | 0.0482 | 0.0054 | 0.0108 | -0.0852 | -0.0513 | -0.101 | -0.0243 | -0.0118 | 0.0149 | 0.0198 | -0.0501 |
